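Five compound concentrations were applied to cells in 96-well plates for 48 hours; endpoints were derived by simple linear interpolation of the resulting dose-response curve. Here, GI50 denotes the concentration required for 50% inhibition of growth. TGI marks complete inhibition of growth.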 *1 amine or outer side, *2 acyl side, *3 side chain or, on linkers, in order; H or OH if unused. Where a SMILES comes first, the peptide text is derived from it. [ ]: non-standard residue; d: D form. The star is where a group is joined. X11 = C/C=C/CC(C)C(O)[C@H](N[*:1])C(=O)[*:2]; Leu(ol) = CC(C)C[C@H](N)CO; Iva = CC[C@](C)(N)C(=O)O; Octanoyl = CCCCCCCC(=O)*; Aib = CC(C)(N)C(=O)O
Key:
Experiment in all cases: inhibition of tumour cell growth, NCI panel, 48 h
786-0 renal = system: 786-0 renal
A498 renal = system: A498 renal
A549 NSCLC = system: A549 NSCLC
ACHN renal = system: ACHN renal
BT-549 breast = system: BT-549 breast
CAKI-1 renal = system: CAKI-1 renal
CCRF-CEM leukemia = system: CCRF-CEM leukemia
COLO 205 colon = system: COLO 205 colon
DU-145 prostate = system: DU-145 prostate
EKVX NSCLC = system: EKVX NSCLC
HCC-2998 colon = system: HCC-2998 colon
HCT-116 colon = system: HCT-116 colon
HCT-15 colon = system: HCT-15 colon
HL-60(TB) leukemia = system: HL-60(TB) leukemia
HOP-62 NSCLC = system: HOP-62 NSCLC
HS 578T breast = system: HS 578T breast
HT29 colon = system: HT29 colon
IGROV1 ovarian = system: IGROV1 ovarian
K-562 leukemia = system: K-562 leukemia
KM12 colon = system: KM12 colon
LOX IMVI melanoma = system: LOX IMVI melanoma
M14 melanoma = system: M14 melanoma
MALME-3M melanoma = system: MALME-3M melanoma
MCF7 breast = system: MCF7 breast
MDA-MB-231 breast = system: MDA-MB-231 breast
MDA-MB-435 = system: MDA-MB-435
MOLT-4 leukemia = system: MOLT-4 leukemia
NCI-H226 lung = system: NCI-H226 lung
NCI-H460 lung = system: NCI-H460 lung
NCI-H522 lung = system: NCI-H522 lung
NCI/ADR-RES ovarian = system: NCI/ADR-RES ovarian
OVCAR-3 ovarian = system: OVCAR-3 ovarian
OVCAR-4 ovarian = system: OVCAR-4 ovarian
OVCAR-5 ovarian = system: OVCAR-5 ovarian
OVCAR-8 ovarian = system: OVCAR-8 ovarian
PC-3 prostate = system: PC-3 prostate
RPMI-8226 leukemia = system: RPMI-8226 leukemia
RXF 393 renal = system: RXF 393 renal
SF-268 CNS = system: SF-268 CNS
SF-295 CNS = system: SF-295 CNS
SF-539 CNS = system: SF-539 CNS
SK-MEL-2 melanoma = system: SK-MEL-2 melanoma
SK-MEL-28 melanoma = system: SK-MEL-28 melanoma
SK-MEL-5 melanoma = system: SK-MEL-5 melanoma
SK-OV-3 ovarian = system: SK-OV-3 ovarian
SN12C renal = system: SN12C renal
SNB-19 CNS = system: SNB-19 CNS
SNB-75 CNS = system: SNB-75 CNS
SR leukemia = system: SR leukemia
SW-620 colon = system: SW-620 colon
T-47D breast = system: T-47D breast
TK-10 renal = system: TK-10 renal
U251 CNS = system: U251 CNS
UACC-257 melanoma = system: UACC-257 melanoma
UACC-62 melanoma = system: UACC-62 melanoma
UO-31 renal = system: UO-31 renal

Which GI50 (786-0 renal) does the source give for `C/C=C/CC(C)C(O)[C@H](NC(=O)[C@@H]1CCCN1C(=O)C(C)(C)NC(=O)CCCCCCC)C(=O)N[C@@](C)(CC)C(=O)N[C@@H](CCC(N)=O)C(=O)N[C@H](CCC(N)=O)C(=O)NC(C)(C)C(=O)NC(C)(C)C(=O)N[C@@H](CCC(N)=O)C(=O)N[C@H](CC(C)C)C(=O)N[C@H](CO)CC(C)C` (stereo partly drawn) (Octanoyl-[Aib]P[X11][Iva]Q[dQ][Aib][Aib]Q[dL][Leu(ol)]) here?
The GI50 was 2.71 µM.

And the TGI (786-0 renal)?
Its TGI is 7.6 µM.

What about the GI50 (A498 renal) of the same compound?
Its GI50 is 2.74 µM.

And the TGI (A498 renal)?
The TGI was 7.25 µM.

What about the GI50 (A549 NSCLC) of the same compound?
Its GI50 is 5.12 µM.

What about the TGI (A549 NSCLC) of the same compound?
The TGI was 21 µM.

And the GI50 (ACHN renal)?
The GI50 was 7.45 µM.

What about the TGI (ACHN renal) of the same compound?
The TGI was 19.9 µM.

And the GI50 (BT-549 breast)?
Its GI50 is 2.01 µM.

What about the TGI (BT-549 breast) of the same compound?
Its TGI is 3.63 µM.

What about the GI50 (CAKI-1 renal) of the same compound?
Its GI50 is 4.89 µM.

And the TGI (CAKI-1 renal)?
The TGI was 18.4 µM.

And the GI50 (CCRF-CEM leukemia)?
Its GI50 is 2.35 µM.

And the TGI (CCRF-CEM leukemia)?
Its TGI is 5.63 µM.

And the GI50 (COLO 205 colon)?
The GI50 was 2.03 µM.

What about the TGI (COLO 205 colon) of the same compound?
The TGI was 4.04 µM.

And the GI50 (DU-145 prostate)?
Its GI50 is 2.15 µM.

What about the TGI (DU-145 prostate) of the same compound?
Its TGI is 4.61 µM.

What about the GI50 (EKVX NSCLC) of the same compound?
Its GI50 is 2.83 µM.

What about the TGI (EKVX NSCLC) of the same compound?
The TGI was 9.74 µM.

And the GI50 (HCC-2998 colon)?
The GI50 was 3 µM.

What about the TGI (HCC-2998 colon) of the same compound?
Its TGI is 10.1 µM.

And the GI50 (HCT-116 colon)?
The GI50 was 4.11 µM.

What about the TGI (HCT-116 colon) of the same compound?
Its TGI is 16 µM.

What about the GI50 (HCT-15 colon) of the same compound?
The GI50 was 5.2 µM.

And the TGI (HCT-15 colon)?
Its TGI is 18.2 µM.

What about the GI50 (HL-60(TB) leukemia) of the same compound?
The GI50 was 1.74 µM.

And the TGI (HL-60(TB) leukemia)?
The TGI was 3.86 µM.

And the GI50 (HOP-62 NSCLC)?
The GI50 was 3.16 µM.

And the TGI (HOP-62 NSCLC)?
The TGI was 11.2 µM.

What about the GI50 (HS 578T breast) of the same compound?
Its GI50 is 2.45 µM.

What about the TGI (HS 578T breast) of the same compound?
The TGI was 6.8 µM.

What about the GI50 (HT29 colon) of the same compound?
The GI50 was 7.35 µM.

What about the TGI (HT29 colon) of the same compound?
Its TGI is 20.6 µM.

And the GI50 (IGROV1 ovarian)?
Its GI50 is 6.83 µM.

And the TGI (IGROV1 ovarian)?
Its TGI is 20.3 µM.

And the GI50 (K-562 leukemia)?
Its GI50 is 1.85 µM.

What about the TGI (K-562 leukemia) of the same compound?
The TGI was 3.52 µM.

And the GI50 (KM12 colon)?
Its GI50 is 2.16 µM.

What about the TGI (KM12 colon) of the same compound?
The TGI was 4.77 µM.

What about the GI50 (LOX IMVI melanoma) of the same compound?
Its GI50 is 3.56 µM.

What about the TGI (LOX IMVI melanoma) of the same compound?
The TGI was 13.6 µM.

And the GI50 (M14 melanoma)?
Its GI50 is 2.66 µM.

What about the TGI (M14 melanoma) of the same compound?
Its TGI is 7.2 µM.

What about the GI50 (MALME-3M melanoma) of the same compound?
The GI50 was 1.96 µM.

And the TGI (MALME-3M melanoma)?
Its TGI is 4.68 µM.

And the GI50 (MCF7 breast)?
Its GI50 is 2.95 µM.

And the TGI (MCF7 breast)?
The TGI was 10.7 µM.

What about the GI50 (MDA-MB-231 breast) of the same compound?
The GI50 was 3.16 µM.

And the TGI (MDA-MB-231 breast)?
Its TGI is 10.1 µM.

What about the GI50 (MDA-MB-435) of the same compound?
The GI50 was 1.93 µM.

What about the TGI (MDA-MB-435) of the same compound?
The TGI was 3.83 µM.

And the GI50 (MOLT-4 leukemia)?
The GI50 was 2.43 µM.

What about the TGI (MOLT-4 leukemia) of the same compound?
Its TGI is 5.62 µM.

What about the GI50 (NCI-H226 lung) of the same compound?
Its GI50 is 2.25 µM.

And the TGI (NCI-H226 lung)?
Its TGI is 5.92 µM.

And the GI50 (NCI-H460 lung)?
Its GI50 is 3.89 µM.

And the TGI (NCI-H460 lung)?
The TGI was 13.1 µM.

And the GI50 (NCI-H522 lung)?
Its GI50 is 2.27 µM.

What about the TGI (NCI-H522 lung) of the same compound?
The TGI was 6.34 µM.

What about the GI50 (NCI/ADR-RES ovarian) of the same compound?
The GI50 was 8.82 µM.

And the TGI (NCI/ADR-RES ovarian)?
The TGI was 22.4 µM.

What about the GI50 (OVCAR-3 ovarian) of the same compound?
The GI50 was 10.6 µM.

And the TGI (OVCAR-3 ovarian)?
Its TGI is 24 µM.

And the GI50 (OVCAR-4 ovarian)?
The GI50 was 10.4 µM.

And the TGI (OVCAR-4 ovarian)?
The TGI was 24.1 µM.

And the GI50 (OVCAR-5 ovarian)?
Its GI50 is 5.64 µM.

And the TGI (OVCAR-5 ovarian)?
The TGI was 18.7 µM.

What about the GI50 (OVCAR-8 ovarian) of the same compound?
Its GI50 is 3.16 µM.

What about the TGI (OVCAR-8 ovarian) of the same compound?
Its TGI is 12.3 µM.

What about the GI50 (PC-3 prostate) of the same compound?
The GI50 was 2.34 µM.

What about the TGI (PC-3 prostate) of the same compound?
The TGI was 6.75 µM.

What about the GI50 (RPMI-8226 leukemia) of the same compound?
The GI50 was 2.38 µM.

And the TGI (RPMI-8226 leukemia)?
Its TGI is 5.28 µM.

What about the GI50 (RXF 393 renal) of the same compound?
The GI50 was 1.79 µM.

What about the TGI (RXF 393 renal) of the same compound?
The TGI was 3.37 µM.

What about the GI50 (SF-268 CNS) of the same compound?
The GI50 was 2.96 µM.

What about the TGI (SF-268 CNS) of the same compound?
The TGI was 10.2 µM.

And the GI50 (SF-295 CNS)?
Its GI50 is 2.27 µM.

And the TGI (SF-295 CNS)?
The TGI was 5.61 µM.

And the GI50 (SF-539 CNS)?
Its GI50 is 1.95 µM.

What about the TGI (SF-539 CNS) of the same compound?
The TGI was 4.14 µM.

And the GI50 (SK-MEL-2 melanoma)?
The GI50 was 6.7 µM.

And the TGI (SK-MEL-2 melanoma)?
The TGI was 19.4 µM.

What about the GI50 (SK-MEL-28 melanoma) of the same compound?
The GI50 was 1.81 µM.

And the TGI (SK-MEL-28 melanoma)?
Its TGI is 3.38 µM.

And the GI50 (SK-MEL-5 melanoma)?
Its GI50 is 1.85 µM.

And the TGI (SK-MEL-5 melanoma)?
Its TGI is 3.52 µM.

What about the GI50 (SK-OV-3 ovarian) of the same compound?
Its GI50 is 10.7 µM.

And the TGI (SK-OV-3 ovarian)?
The TGI was 23.9 µM.

What about the GI50 (SN12C renal) of the same compound?
Its GI50 is 3.12 µM.

And the TGI (SN12C renal)?
Its TGI is 11.6 µM.

What about the GI50 (SNB-19 CNS) of the same compound?
The GI50 was 3.95 µM.

What about the TGI (SNB-19 CNS) of the same compound?
Its TGI is 14.6 µM.

And the GI50 (SNB-75 CNS)?
The GI50 was 1.42 µM.

And the TGI (SNB-75 CNS)?
The TGI was 3.24 µM.

And the GI50 (SR leukemia)?
The GI50 was 1.79 µM.

And the TGI (SR leukemia)?
The TGI was 3.64 µM.

What about the GI50 (SW-620 colon) of the same compound?
Its GI50 is 6.91 µM.

What about the TGI (SW-620 colon) of the same compound?
The TGI was 20.2 µM.

And the GI50 (T-47D breast)?
Its GI50 is 4.34 µM.

What about the TGI (T-47D breast) of the same compound?
Its TGI is 20.3 µM.

And the GI50 (TK-10 renal)?
Its GI50 is 4.54 µM.

What about the TGI (TK-10 renal) of the same compound?
Its TGI is 15 µM.

What about the GI50 (U251 CNS) of the same compound?
Its GI50 is 1.74 µM.

What about the TGI (U251 CNS) of the same compound?
The TGI was 3.2 µM.

And the GI50 (UACC-257 melanoma)?
Its GI50 is 1.8 µM.

What about the TGI (UACC-257 melanoma) of the same compound?
The TGI was 3.75 µM.

And the GI50 (UACC-62 melanoma)?
Its GI50 is 3.02 µM.

And the TGI (UACC-62 melanoma)?
The TGI was 11.2 µM.

And the GI50 (UO-31 renal)?
The GI50 was 3.1 µM.

And the TGI (UO-31 renal)?
Its TGI is 14.9 µM.
